Measured values from PubChem BioAssay AID1963875 (Molecular Pharmacology Branch, DTP, NCI, 2024).

Tested on: KRAS-mutant PDC complex spheroid viability
Assay: Anticancer human tumor 186277-243-T-J2-PDC patient-derived colon adenocarcinoma cell line growth inhibition [KRAS2]
Details: for IC50: curve of first compound; for viability, T/C: stronger effect = lower value
Procedure, shortened: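 Combination screen of spheroid viability in tumor-cell co-cultures with endothelial (HUVEC) and mesenchymal stem cell stroma. Each agent was tested in half-log dilutions, topping at clinical Cmax or at 10 microM without a known Cmax.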

[1] = second compound 0.1 µM, first compound 0.01 µM
[2] = second compound 0.1 µM, first compound 0.0316 µM
[3] = second compound 0.1 µM, first compound 0.1 µM
[4] = second compound 0.1 µM, first compound 0.316 µM
[5] = second compound 0.1 µM, first compound 1 µM
[6] = second compound 0.1 µM, first compound 3.16 µM
[7] = second compound 0.316 µM, first compound 0.01 µM
[8] = second compound 0.316 µM, first compound 0.0316 µM
[9] = second compound 0.316 µM, first compound 0.1 µM
[10] = second compound 0.316 µM, first compound 0.316 µM
[11] = second compound 0.316 µM, first compound 1 µM
[12] = second compound 0.316 µM, first compound 3.16 µM
[13] = second compound 1 µM, first compound 0.01 µM
[14] = second compound 1 µM, first compound 0.0316 µM
[15] = second compound 1 µM, first compound 0.1 µM
[16] = second compound 1 µM, first compound 0.316 µM
[17] = second compound 1 µM, first compound 1 µM
[18] = second compound 1 µM, first compound 3.16 µM
[19] = second compound 3.16 µM, first compound 0.01 µM
[20] = second compound 3.16 µM, first compound 0.0316 µM
[21] = second compound 3.16 µM, first compound 0.1 µM
[22] = second compound 3.16 µM, first compound 0.316 µM
[23] = second compound 3.16 µM, first compound 1 µM
[24] = second compound 3.16 µM, first compound 3.16 µM
[25] = second compound 10 µM, first compound 0.01 µM
[26] = second compound 10 µM, first compound 0.0316 µM
[27] = second compound 10 µM, first compound 0.1 µM
[28] = second compound 10 µM, first compound 0.316 µM
[29] = second compound 10 µM, first compound 1 µM
[30] = second compound 10 µM, first compound 3.16 µM
[31] = second compound 0.1 µM, first compound 10 µM
[32] = second compound 0.316 µM, first compound 10 µM
[33] = second compound 1 µM, first compound 10 µM
[34] = second compound 3.16 µM, first compound 10 µM
[35] = second compound 10 µM, first compound 10 µM
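Wherever viability, T/C is given: viability read after seven days of compound exposure; 100% = DMSO vehicle-treated spheroids so lower means less viable.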

| SMILES | IC50 (second compound 0.1 µM) [nM] | IC50 (second compound 0.316 µM) [nM] | IC50 (second compound 1 µM) [nM] | IC50 (second compound 3.16 µM) [nM] | IC50 (second compound 10 µM) [nM] | viability, T/C [2] [%] | viability, T/C [3] [%] | viability, T/C [4] [%] | viability, T/C [5] [%] | viability, T/C [6] [%] | viability, T/C [8] [%] | viability, T/C [9] [%] | viability, T/C [10] [%] | viability, T/C [11] [%] | viability, T/C [12] [%] | viability, T/C [14] [%] | viability, T/C [15] [%] | viability, T/C [16] [%] | viability, T/C [17] [%] | viability, T/C [18] [%] | other results |
| --- | --- | --- | --- | --- | --- | --- | --- | --- | --- | --- | --- | --- | --- | --- | --- | --- | --- | --- | --- | --- | --- |
| CC1COCCN1c1cc(-c2ccnn2C)c2ccnc(-c3ccn[nH]3)c2n1 (stereo not given) + CNCc1ccccc1-c1csc(C(C)Nc2nc(C)nc3cc(OC)c(OC)cc23)c1 | 20 | 21.2 | 19.6 | < 10 | < 10 | 18.4 | 5.46 | 3.99 | 3.43 | 4.08 | 24.2 | 8.14 | 3.97 | 3.29 | 4.28 | 15.5 | 4.99 | 3.97 | 3.82 | 4.51 | viability, T/C [1]: 97.7%; viability, T/C [7]: 98.4%; viability, T/C [13]: 98.9%; viability, T/C [19]: 23.7%; viability, T/C [20]: 1.99%; viability, T/C [21]: 0.3%; viability, T/C [22]: 0.17%; viability, T/C [23]: 0.22%; viability, T/C [24]: 0.31%; viability, T/C [25]: 0.13%; viability, T/C [26]: 0.1%; viability, T/C [27]: 0.09%; viability, T/C [28]: 0.09%; viability, T/C [29]: 0.1%; viability, T/C [30]: 0.15% |
| CC1OCC2(CCN(c3cnc(Sc4ccnc(N)c4Cl)c(N)n3)CC2)C1N (stereo not given) + CNCc1ccccc1-c1csc(C(C)Nc2nc(C)nc3cc(OC)c(OC)cc23)c1 | > 10000 | > 10000 | > 10000 | 1520 | < 31.6 | 96.1 | 104 | 104 | 90.9 | 107 | 103 | 99.8 | 111 | 108 | 104 | 91.2 | 104 | 95 | 105 | 93.2 | viability, T/C [31]: 105%; viability, T/C [32]: 84.2%; viability, T/C [33]: 60.5%; viability, T/C [20]: 85.2%; viability, T/C [21]: 72.8%; viability, T/C [22]: 102%; viability, T/C [23]: 71.4%; viability, T/C [24]: 11.4%; viability, T/C [34]: 1.07%; viability, T/C [26]: 0.18%; viability, T/C [27]: 0.18%; viability, T/C [28]: 0.17%; viability, T/C [29]: 0.15%; viability, T/C [30]: 0.12%; viability, T/C [35]: 0.15% |
| Cn1nccc1Nc1nccc(-c2cc3c(s2)C(C)(C)N(CCN2CCOCC2)C3=O)n1 + CNCc1ccccc1-c1csc(C(C)Nc2nc(C)nc3cc(OC)c(OC)cc23)c1 | 293 | 304 | 205 | 91.7 | < 31.6 | 99.2 | 98.3 | 46.1 | 13.5 | 7.74 | 94.4 | 97.3 | 48.2 | 9.73 | 4.43 | 92 | 105 | 20.6 | 4.12 | 1.64 | viability, T/C [31]: 6.21%; viability, T/C [32]: 7.35%; viability, T/C [33]: 2.61%; viability, T/C [20]: 81.7%; viability, T/C [21]: 47.4%; viability, T/C [22]: 1.6%; viability, T/C [23]: 1.86%; viability, T/C [24]: 0.22%; viability, T/C [34]: 0.1%; viability, T/C [26]: 0.17%; viability, T/C [27]: 0.15%; viability, T/C [28]: 0.1%; viability, T/C [29]: 0.09%; viability, T/C [30]: 0.09%; viability, T/C [35]: 0.16% |
| CC(=O)OC12COC1CC(O)C1(C)C(=O)C(O)C3=C(C)C(OC(=O)C(O)C(NC(=O)OC(C)(C)C)c4ccccc4)CC(O)(C(OC(=O)c4ccccc4)C21)C3(C)C (stereo not given) + COc1cc2nc(C)nc(NC(C)c3cc(N)cc(C(F)(F)F)c3)c2cc1OC1CCOC1 | < 10 | < 10 | < 10 | < 10 | < 10 | 5.2 | 2.78 | 2.85 | 2.91 | 3.62 | 3.35 | 2.81 | 2.36 | 2.72 | 2.69 | 4.27 | 3.44 | 3.47 | 3.46 | 2.96 | viability, T/C [1]: 4.45%; viability, T/C [7]: 4.29%; viability, T/C [13]: 3.08%; viability, T/C [19]: 3.01%; viability, T/C [20]: 2.78%; viability, T/C [21]: 2.73%; viability, T/C [22]: 2.51%; viability, T/C [23]: 2.54%; viability, T/C [24]: 2.73%; viability, T/C [25]: 3.2%; viability, T/C [26]: 3.03%; viability, T/C [27]: 2.84%; viability, T/C [28]: 3%; viability, T/C [29]: 2.42%; viability, T/C [30]: 2.82% |
